According to BindingDB's records for patent US20250368647 (Glaxosmithkline Intellectual Property Development, 2025):

Molecular target: Sodium channel protein type 10 subunit alpha (Homo sapiens, UniProt Q9Y5Y9)
Assay: Pharmacological Assay
Text: Utilizing the voltage-clamp mode in the QPatch 48 HTX system a half inactivation state voltage protocol (V1/2) was used to determine pharmacological activity of compounds of the invention at Nav1.8 ion channels. A V1/2 protocol was utilized with the following voltage steps: a holding voltage of −100 mV was established followed by a 20 ms voltage step to 0 mV (P1), followed by an inactivating voltage step at −46 mV for 8 seconds, followed by a step to −100 mV for 20 ms, before a 20 ms step to 0 mV (P2), then returned to the holding voltage of −100 mV. This voltage protocol was repeated at a frequency of every 15 seconds, the current magnitude was quantified at the P2 step throughout the recording. Inhibition of the measured current amplitude with compounds of the invention was analyzed by fitting a 4-6 points dose-response curve allowing determination of the fifty percent inhibition concentration (IC50). P2 currents were normalized according to measurements made at baseline (Baseline, vehicle only), after compound (Input, at each test concentration), and after positive reference compound (FullResponse, to achieve complete block), fit to the following equation:n.ICPD=NormalizedCurrent=(Input-Baseline)(FullResponse-Baseline)[1570]To assess current run-down over the course of the experiment vehicle-only wells were utilized and the normalized current with vehicle-only (n.IVEH) was determined. To correct the compound response for run-down, the currents were corrected according to the following formula:n.IRD_Correct=(n.ICPD-n.IVEH)(1-n.IVEH)

Chain of Sodium channel protein type 10 subunit alpha (Q9Y5Y9 whole entry): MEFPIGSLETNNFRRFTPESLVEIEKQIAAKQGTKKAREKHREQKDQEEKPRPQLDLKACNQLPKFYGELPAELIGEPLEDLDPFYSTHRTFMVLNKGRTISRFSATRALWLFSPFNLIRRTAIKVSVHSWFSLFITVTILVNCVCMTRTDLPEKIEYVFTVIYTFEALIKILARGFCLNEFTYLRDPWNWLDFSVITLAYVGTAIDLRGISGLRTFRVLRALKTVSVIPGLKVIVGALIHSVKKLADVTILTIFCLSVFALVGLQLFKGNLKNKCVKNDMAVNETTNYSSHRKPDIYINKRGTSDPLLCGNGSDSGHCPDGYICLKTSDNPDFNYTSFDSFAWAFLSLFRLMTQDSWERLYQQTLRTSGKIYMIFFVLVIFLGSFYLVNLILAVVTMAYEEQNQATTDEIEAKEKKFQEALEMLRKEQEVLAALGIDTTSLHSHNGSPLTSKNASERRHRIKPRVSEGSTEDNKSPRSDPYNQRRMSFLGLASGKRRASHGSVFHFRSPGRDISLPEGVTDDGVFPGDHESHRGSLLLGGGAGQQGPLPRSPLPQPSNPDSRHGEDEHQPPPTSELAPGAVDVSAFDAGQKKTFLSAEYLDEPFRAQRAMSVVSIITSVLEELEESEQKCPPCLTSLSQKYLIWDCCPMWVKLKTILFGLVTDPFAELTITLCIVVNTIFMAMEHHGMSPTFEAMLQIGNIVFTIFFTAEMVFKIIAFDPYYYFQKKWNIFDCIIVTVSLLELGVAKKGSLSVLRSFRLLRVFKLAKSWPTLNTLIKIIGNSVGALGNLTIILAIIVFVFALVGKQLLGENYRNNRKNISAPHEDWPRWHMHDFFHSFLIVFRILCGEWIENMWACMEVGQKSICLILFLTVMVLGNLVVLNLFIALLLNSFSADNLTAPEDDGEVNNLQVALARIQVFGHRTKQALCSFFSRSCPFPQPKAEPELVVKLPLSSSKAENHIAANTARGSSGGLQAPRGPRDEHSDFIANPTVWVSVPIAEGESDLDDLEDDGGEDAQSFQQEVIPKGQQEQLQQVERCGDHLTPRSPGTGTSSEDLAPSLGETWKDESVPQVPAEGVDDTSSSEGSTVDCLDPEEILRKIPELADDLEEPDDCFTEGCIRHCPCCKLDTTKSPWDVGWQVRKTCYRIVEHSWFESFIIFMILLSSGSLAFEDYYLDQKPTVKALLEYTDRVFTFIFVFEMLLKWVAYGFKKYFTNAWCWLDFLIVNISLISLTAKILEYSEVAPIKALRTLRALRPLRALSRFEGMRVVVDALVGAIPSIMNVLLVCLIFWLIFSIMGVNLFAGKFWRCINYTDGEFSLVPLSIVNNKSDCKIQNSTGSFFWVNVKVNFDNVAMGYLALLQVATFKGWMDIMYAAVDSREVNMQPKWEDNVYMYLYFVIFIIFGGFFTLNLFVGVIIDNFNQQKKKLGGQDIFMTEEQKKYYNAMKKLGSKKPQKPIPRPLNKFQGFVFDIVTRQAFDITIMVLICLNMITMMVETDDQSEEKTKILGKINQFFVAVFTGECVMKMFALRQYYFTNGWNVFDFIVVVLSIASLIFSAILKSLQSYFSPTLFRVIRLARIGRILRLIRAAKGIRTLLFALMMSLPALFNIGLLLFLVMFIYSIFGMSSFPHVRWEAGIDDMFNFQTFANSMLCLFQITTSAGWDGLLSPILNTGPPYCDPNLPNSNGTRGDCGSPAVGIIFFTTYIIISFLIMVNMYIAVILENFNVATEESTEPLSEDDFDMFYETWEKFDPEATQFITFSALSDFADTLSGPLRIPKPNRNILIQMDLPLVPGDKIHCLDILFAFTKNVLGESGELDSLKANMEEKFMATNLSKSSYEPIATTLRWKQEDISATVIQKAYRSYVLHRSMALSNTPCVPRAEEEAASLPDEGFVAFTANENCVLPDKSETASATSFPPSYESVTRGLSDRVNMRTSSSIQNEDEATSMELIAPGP

IC50 [µM]	SMILES
0.00316	O=C1c2cc(F)c(C(F)(F)F)cc2N2CN1c1ccc(=O)[nH]c1CCNCc1c2ccc(OC(F)(F)F)c1F [US20250368647, Example 52]
0.0158	CC1CCNc2[nH]c(=O)ccc2N2CN(c3cc(C(F)(F)F)c(F)cc3C2=O)c2ccc(F)c(F)c21 (stereo unspecified) [US20250368647, Example 131]

Further lines, the molecule ahead of its results:

SMILES	IC50 [µM]
O=C1c2cc(C(F)(F)F)ccc2N2CN1c1ccc(=O)[nH]c1CCNCc1cc(F)c(F)cc12 [US20250368647, Example 47]	0.2
O=C1c2cc(OCC(F)(F)F)ccc2N2CN1c1ccc(=O)[nH]c1CCNCc1cc(F)ccc12 [US20250368647, Example 56]	1.26
O=C1c2cc(F)c(C(F)(F)F)cc2N2CN1c1ccc(=O)[nH]c1CCNCc1cc(OC(F)(F)F)ccc12 [US20250368647, Example 51]	0.01
O=C1c2ccc(C(F)(F)F)cc2N2CN1c1ccc(=O)[nH]c1CCCCCOc1cc(F)ccc12 [US20250368647, Example 19]	0.316
